Assay results from patent US20210029995A1, “Use of Volatile Organic Compounds as Pesticides” (Certis Europe B.V., priority 2018, published 2021).
Structures can show the parent of a compound that is named as a salt.

Assays:
H. bacteriophora [1] = experiment: Dose mortality assay for the EPNs (Example 2); type: in vivo, Heterorhabditis bacteriophora
Method: (§1) All statistical analyses were carried out using RStudio statistics package (RStudio, Inc. version 1.0.153), using “MASS” and “multcomp” packages. For all mortality data, differential sensitivity between EPN species and/or insect species and differential compound potency were determined using a generalised linear model (GLM) and Tukey's range test in post-hoc analysis. LD50 values were calculated using a GLM and the “dose.p” function within the “MASS” package. An ANOVA was carried out on the chemotactic responses of EPNs to VOCs, with the strength of response compared at each time and concentration. Welch's t-tests were used to compare means of mortality results in the final EPNs efficacy assay.
(§2) Dose mortality assays were performed using 3-octanone and 1-octen-3-ol. The assays were performed as described in Example 1, except that the EPNs (S. carpocapsae (Sc), S. feltiae (Sf) and H. bacteriophora (Hb)) were exposed to different doses of the VOCs (5, 10, 15 and 20 μl). The mortality was recorded as described previously at 3, 6, 12 and 24 hr post treatment. Controls included EPNs only (no VOC) and EPNs+1-octene. The results are shown in FIG. 2 (results 3 hr post treatment), 3 (results 6 hr post treatment), 4 (results 12 hr post treatment) & 5 (results 24 hr post treatment).

[2] = test system: S. carpocapsae, S. feltiae and H. bacteriophora; experiment: Dose mortality assay, statement for all three EPNs; type: in vivo; details: for mortality: all three EPNs, after 24 hr
Method: (§3) Authenticated M. brunneum VOCs, along with other selected VOCs, were screened for nematicidal activity against S. feltiae and H. bacteriophora. 750 μl of nematode suspension containing approximately 5000 Us in tap water, was spread uniformly over the water agar surface (2.6% w/v agar, 5 mM potassium phosphate pH 6, 1 mM CaCl2 and 1 mM MgSO4) of a Petri dish. Each Petri dish (90 mm) contained 20 ml of the water agar medium. The inoculated plates were kept in darkness for 3 hr at room temperature to acclimatize. The plates were then exposed to 20 μl of the VOC dispensed from a 8 mm paper disc (Whatman™, 0.34 mm thickness) positioned on a 25×25 mm glass coverslip placed in the centre of the Petri dish lid (FIG. 1A). The plates were sealed with a double layer of Parafilm and were kept in the dark at 21° C. and checked after 24 hr. The number of live and dead nematodes were counted with the aid of a stereo binocular microscope (30×).
Dose mortality assays were performed using 3-octanone and 1-octen-3-ol. The assays were performed as described in Example 1, except that the EPNs (S. carpocapsae (Sc), S. feltiae (Sf) and H. bacteriophora (Hb)) were exposed to different doses of the VOCs (5, 10, 15 and 20 μl). The mortality was recorded as described previously at 3, 6, 12 and 24 hr post treatment. Controls included EPNs only (no VOC) and EPNs+1-octene.

S. feltiae [3] = details: 20 μl VOC, checked after 24 hr, sealed Petri dish
Method: as §3, with “750 μl of nematode suspension containing approximately 5000 Us in tap water, was spread uniformly over the water agar surface (2.6% w/v agar, 5 mM potassium phosphate pH 6, 1 mM CaCl2 and 1 mM MgSO4) of a Petri dish.” left out
(§4) The deposition was predetermined using bacterial cultures highly sensitive to these VOCs. The edge of the circular zone of inhibition delineated the area of activity.
(§5) Mean of mortality was calculated from the total number of alive and dead individuals across all circles. There were five replicates per treatment and the whole experiment was repeated twice.

H. bacteriophora [4] = details: 20 μl VOC, checked after 24 hr, sealed Petri dish
Method: as §3, with “750 μl of nematode suspension containing approximately 5000 Us in tap water, was spread uniformly over the water agar surface (2.6% w/v agar, 5 mM potassium phosphate pH 6, 1 mM CaCl2 and 1 mM MgSO4) of a Petri dish.” left out
as §4, §5

S. feltiae [5] = experiment: Dose mortality assay for the EPNs (Example 2); type: in vivo, Steinernema feltiae
Method: as §1, §2

S. carpocapsae = experiment: Dose mortality assay for the EPNs (Example 2); type: in vivo, Steinernema carpocapsae; details: for mortality: after 24 hr
Method: as §1, §2

[6] = test system: root knot nematode M. hapla; details: for nematicidal activity against M. hapla: 5 μl and 10 μl
Method: as §3
A study was conducted to determine the susceptibility of the root knot nematode M. hapla, a major crop pest, to 3-octanone and 1-octen-3-ol. Single egg-mass populations of M. hapla were kindly provided by Dr Ivan Grove (Harper Adams University/Crop and Environment Sciences). Four-week-old tomato plants (Solanum lycopersicum cv. Rutgers) were grown in a greenhouse. Soil in each pot was infested by pipetting egg masses of M. hapla suspended in tap water and cultivated at approximately 25±2° C. in a greenhouse. Six months following inoculation, tomato plants were uprooted and root systems were carefully washed with running tap water to remove adhered soil. The roots were cut into small pieces and extracted by the Baermann funnel method for 3-5 days to obtain live nematodes. The inoculum concentration included a range of life stages and was adjusted to approximately 2000 individuals using tap water by the aid of a haemocytometer. A mortality assay was carried out as described in Examples 1 and 2 above. The assay was carried out at two doses of the VOCs (5 μl and 10 μl) and the mortality was recorded at 3, 6 and 24 hr post treatment. There were three replicates per treatment and the whole experiment was repeated twice.

| Compound | Mortality (%) (Mean ± SE) S. feltiae (Sf) (S. feltiae [3]) | Mortality (%) (Mean ± SE) H. bacteriophora (Hb) (H. bacteriophora [4]) | also measured |
| --- | --- | --- | --- |
| C=CC(O)CCCCC (centres unmarked) [1-octen-3-ol] | 100 | 91.6±2.1 | LD50 (H. bacteriophora [1]; 6 hr): 21.72 µL; mortality [2]: very high; LD50 (S. feltiae [5]; 6 hr): 10.56 µL; LD50 (S. carpocapsae; 24 hr): 41.01 µL; nematicidal activity against M. hapla [6]: strong nematicidal activity; mortality response ([6]; M. hapla, after 3 hr and 6 hr, 5 and 10 μl): dose dependent response; dead nematodes ([6]; M. hapla, after 24 hr, both doses (5 μl and 10 μl)): over 90% |
| C=CCCCCCC [1-octene, reference compound] | 20.1 ± 3 | 19.4 ± 3.8 | mortalities ([2]; EPNs, over time (3-24 hr)): extremely low; mortality (S. feltiae [5]; after 24 hr): ≤ 50%; mortality (S. carpocapsae): ≤ 50% |
| CC(O)C(C)O (centres unmarked) [2,3-Butanediol] | 12.5 ± 7.2 | 11.4 ± 2.3 |  |
| CCCCCC(=O)CC [3-octanone] | 100 | 100 | LD50 (H. bacteriophora [1]; 3 hr): 5.68 µL; mortality (H. bacteriophora [1]; time points later than 3 hr): exceeded 90%; mortality [2]: very high; mortality (S. feltiae [5]; at all time points (3, 6, 12, 24 hr)): > 99%; LD50 (μl) (S. feltiae [5]; no LD50 calculated): a (>99% mortality from 3 hr); LD50 (S. carpocapsae; 12 hr): 94.88 µL; mortality (S. carpocapsae; all doses (5-20 μl)): all nematodes were dead at all doses; nematicidal activity against M. hapla [6]: strong nematicidal activity; mortality ([6]; in vivo): 100% |
| C=C(C)[C@H]1CC=C(C)CC1 [(R)-(+)-Limonene] | 16.7 ± 3.2 | 5.9 ± 1.9 |  |
| CC(C)CCO [Isoamyl alcohol] | 20.8 ± 3 | 9.7 ± 2.1 |  |
| CC(C)CCOC=O [Isoamyl formate] | 58 | 46.6±1.8 |  |
| COC(=O)CC(C)C [Methyl isovalerate] | 38.1 ± 7 | 55 ± 2.6 |  |
| CCCCCCCCCCCCC [Tridecane] | 32.3 ± 5 | 4.1 ± 1.6 |  |
| CCCCCCCCCCC [Undecane] | 25.4 ± 5.6 | 7.5 ± 2.7 |  |
| Farnesene | 43 ± 1.1 | 7.8 ± 3.1 |  |
